Key:
[1] = target: Muscarinic acetylcholine receptor M3 (Cavia porcellus, UniProt Q8VH26); assay: Antagonistic activity measured in isolated guinea pig […] (M3 receptor); format: functional, tissue-based; details: read-out: pA2 (converted)
[2] = target: T1, Muscarinic acetylcholine receptor M2 (Homo sapiens, UniProt P08172); assay: Antagonistic activity measured in isolated guinea pig left atrium (M2 receptor); format: functional, tissue-based, Cavia porcellus, Cardiac atrium; details: target entry is the homologue from another species; read-out: pA2 (converted)
T1 sequence (P08172 whole entry): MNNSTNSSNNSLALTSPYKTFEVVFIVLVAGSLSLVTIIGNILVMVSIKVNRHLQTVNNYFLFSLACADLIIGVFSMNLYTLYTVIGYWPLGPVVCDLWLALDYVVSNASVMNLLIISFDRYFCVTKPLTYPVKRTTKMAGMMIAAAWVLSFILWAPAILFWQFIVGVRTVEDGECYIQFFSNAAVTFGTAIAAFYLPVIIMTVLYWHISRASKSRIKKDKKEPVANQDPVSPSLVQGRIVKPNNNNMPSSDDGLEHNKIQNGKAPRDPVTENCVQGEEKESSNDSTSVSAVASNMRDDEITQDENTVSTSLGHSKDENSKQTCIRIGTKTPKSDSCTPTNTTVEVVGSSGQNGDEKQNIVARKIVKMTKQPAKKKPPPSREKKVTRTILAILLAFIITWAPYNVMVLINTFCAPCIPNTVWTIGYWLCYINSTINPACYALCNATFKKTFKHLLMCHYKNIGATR

[3] = tested on: Muscarinic acetylcholine receptors M2 & M3 (Cavia porcellus); assay: Selectivity ratio between atrium (M2) and ileum (M3) was determined
[4] = target: T2, Muscarinic acetylcholine receptor M4 (Rattus norvegicus, UniProt P08485); assay: Affinity constant measured against M4 muscarinic receptor rat NG108-15 cells; format: cell-based
T2 sequence (P08485 whole entry): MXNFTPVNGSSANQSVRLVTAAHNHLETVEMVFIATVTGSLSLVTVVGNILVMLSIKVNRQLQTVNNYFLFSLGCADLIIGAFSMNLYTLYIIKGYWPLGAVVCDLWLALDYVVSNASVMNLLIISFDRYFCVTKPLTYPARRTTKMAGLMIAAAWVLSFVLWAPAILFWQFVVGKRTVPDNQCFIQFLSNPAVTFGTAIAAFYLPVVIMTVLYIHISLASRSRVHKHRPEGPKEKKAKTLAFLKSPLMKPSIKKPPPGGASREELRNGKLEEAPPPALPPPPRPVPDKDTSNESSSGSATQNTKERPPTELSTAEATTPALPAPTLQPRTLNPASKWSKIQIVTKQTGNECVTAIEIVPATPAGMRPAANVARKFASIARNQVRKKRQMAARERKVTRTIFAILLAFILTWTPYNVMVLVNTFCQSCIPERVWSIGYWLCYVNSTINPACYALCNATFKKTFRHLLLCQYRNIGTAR

[5] = target: Muscarinic acetylcholine receptor M3 (Rattus norvegicus, UniProt P08483); assay: Affinity constant measured against M3 muscarinic receptor in rat submaxillary gland; format: tissue-based
Muscarinic acetylcholine receptor M3 (Rattus norvegicus, UniProt P08483), sequence (P08483 whole entry): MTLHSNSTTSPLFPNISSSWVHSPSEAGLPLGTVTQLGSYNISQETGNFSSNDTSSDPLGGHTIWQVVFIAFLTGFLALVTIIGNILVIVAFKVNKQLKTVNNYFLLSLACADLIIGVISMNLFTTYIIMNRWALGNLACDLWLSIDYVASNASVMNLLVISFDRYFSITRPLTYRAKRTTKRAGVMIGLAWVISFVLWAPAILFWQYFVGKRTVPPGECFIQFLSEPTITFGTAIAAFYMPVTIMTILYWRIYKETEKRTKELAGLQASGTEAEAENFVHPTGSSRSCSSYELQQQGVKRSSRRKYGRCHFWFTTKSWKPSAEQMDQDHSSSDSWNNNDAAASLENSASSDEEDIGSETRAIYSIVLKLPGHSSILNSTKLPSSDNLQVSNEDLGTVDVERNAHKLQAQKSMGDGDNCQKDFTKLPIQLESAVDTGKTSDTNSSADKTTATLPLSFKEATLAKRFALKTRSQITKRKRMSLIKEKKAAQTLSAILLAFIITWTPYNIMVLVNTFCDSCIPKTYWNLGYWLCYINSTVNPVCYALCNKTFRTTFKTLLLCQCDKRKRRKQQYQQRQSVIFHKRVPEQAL

[6] = target: T3, Muscarinic acetylcholine receptor M1 (Rattus norvegicus, UniProt P08482); assay: Affinity constant measured against M1 muscarinic receptor in rat cortex
T3 sequence (P08482 whole entry): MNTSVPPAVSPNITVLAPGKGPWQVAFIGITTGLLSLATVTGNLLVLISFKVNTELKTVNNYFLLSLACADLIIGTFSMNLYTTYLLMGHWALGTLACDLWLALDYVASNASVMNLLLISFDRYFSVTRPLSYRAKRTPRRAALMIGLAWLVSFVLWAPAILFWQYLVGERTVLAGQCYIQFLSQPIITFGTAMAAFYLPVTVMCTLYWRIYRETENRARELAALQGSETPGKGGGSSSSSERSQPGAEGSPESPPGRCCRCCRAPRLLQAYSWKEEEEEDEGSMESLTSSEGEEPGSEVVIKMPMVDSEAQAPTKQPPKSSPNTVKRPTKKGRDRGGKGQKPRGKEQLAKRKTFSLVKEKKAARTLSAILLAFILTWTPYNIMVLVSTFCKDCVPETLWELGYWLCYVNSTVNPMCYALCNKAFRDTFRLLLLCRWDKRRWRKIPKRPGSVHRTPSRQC

Muscarinic acetylcholine receptor M3 (Cavia porcellus, UniProt Q8VH26), sequence (Q8VH26 whole entry): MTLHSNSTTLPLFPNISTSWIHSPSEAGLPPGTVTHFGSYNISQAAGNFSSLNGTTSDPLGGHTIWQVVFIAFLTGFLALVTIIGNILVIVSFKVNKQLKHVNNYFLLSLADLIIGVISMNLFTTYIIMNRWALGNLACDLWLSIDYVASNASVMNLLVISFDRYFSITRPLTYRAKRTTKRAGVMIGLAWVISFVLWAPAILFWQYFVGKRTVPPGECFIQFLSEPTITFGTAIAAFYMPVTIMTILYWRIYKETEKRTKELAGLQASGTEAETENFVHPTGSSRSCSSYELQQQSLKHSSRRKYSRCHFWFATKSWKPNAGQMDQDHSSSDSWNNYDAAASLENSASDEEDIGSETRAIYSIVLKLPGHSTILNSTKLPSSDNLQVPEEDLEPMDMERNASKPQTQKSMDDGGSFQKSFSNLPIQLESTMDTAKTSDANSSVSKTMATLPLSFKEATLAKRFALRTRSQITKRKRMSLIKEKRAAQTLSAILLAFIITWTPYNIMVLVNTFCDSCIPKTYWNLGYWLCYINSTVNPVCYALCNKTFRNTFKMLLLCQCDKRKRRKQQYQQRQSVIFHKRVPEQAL

Structure (SMILES) | Kb [1] [nM] | Ki [4] [nM] | Ki [5] [nM] | Kb [2] [nM] | Selectivity ratio [3] | Ki [6] [nM]
COc1ccccc1CNCCCCCCN(C)CCCCCCCCN(C)CCCCCCNCc1ccccc1OC | 603 | – | – | 12.6 | 48 | –
COc1ccccc1CNCCCCCCNCCCCCCCCNCCCCCCNCc1ccccc1OC [METHOCTRAMINE] | 479 | 26.3 | 1100 | – | – | –
CN(CCCCCCCCN(C)CCCCCCN(CC(=O)N1c2ccccc2C(=O)Nc2cccnc21)CC(=O)N1c2ccccc2C(=O)Nc2cccnc21)CCCCCCNCC(=O)N1c2ccccc2C(=O)Nc2cccnc21 [TRIPITRAMINE] | 282 | 11.7 | 646 | – | – | 23.4

More lines, main results first:

Kb [1] [nM] | Ki [4] [nM] | Ki [5] [nM] | Structure (SMILES) | Kb [2] [nM] | Selectivity ratio [3] | Ki [6] [nM]
126 | – | – | CN(CCCCCCCCN(C)CCCCCCNCC(=O)N1c2ccccc2C(=O)Nc2cccnc21)CCCCCCNCC(=O)N1c2ccccc2C(=O)Nc2cccnc21 | 0.724 | – | –
251 | 10 | 158 | CCN(CC)CCCCC1CCN(CC(=O)N2c3ccccc3C(=O)Nc3cccnc32)CC1 | – | – | 25.1

— ChEMBL document CHEMBL1126912 (J Med Chem, 1993)
